Experimental data taken from patent publication US7378397B2 (The Provost, Fellows and Scholars of the College of the …, priority 2000, dated 2008).
“Also recorded” adds a separate entry of the source. Where a SMILES comes first, the peptide text is derived from it. [ ]: non-standard residue; d: D form. The star is where a group is joined. hPhe = N[C@@H](CCc1ccccc1)C(=O)O; AMC = Cc1cc(=O)oc2cc(N*)ccc12; pGlu = O=C1CC[C@@H](C(=O)O)N1; Pip = O=C(O)[C@@H]1CCCCN1

Key:
TRH-DE [1] = molecular target: T1, TRH-DE (Sus scrofa, UniProt A0A287AP33); test: HPLC assay of peptide hydrolysis by TRH-DE (Glp production); assay type: biochemical, porcine; settings: for Rate of hydrolysis: peptide 1 mM, 37° C., Glp production by HPLC, mean±S.D.; for hydrolysis by TRH-DE (release of Glp): 1 mM peptide incubated with TRH-DE 18 h at 37° C., HPLC
T1 construct: The inventor purified TRH-DE from porcine brain according to purification procedures previously published by Dr. K. Bauer; from tissue; host or cells: porcine brain (TRH-DE); bovine kidney (DPP-IV, gift from Dr. C. H. Williams)
Procedure: (§1) The inventor purified TRH-DE from porcine brain according to purification procedures previously published by Dr. K. Bauer, (Max-Planck-Institut, Hannover, Germany) (1). TRH-DE was purified almost 20,000 fold. […] Dipeptidyl peptidase IV (DPP-IV) (EC 3.4.14.5), purified from bovine kidney (7.7 mg ml^−1, specific activity of 17.5 U mg^−1 with Gly-ProAMC as substrate), was obtained as a gilt from Dr. C. H. Williams (Queen's University Belfast, U.K). (DPP-IV was used as the coupling enzyme used in the fluorometric assays).
(§2) One unit (U) of enzyme activity was defined as that amount catalysing the formation of one μmol of product in one minute under the standard conditions employed. All incubations in the assays described below were carried out in 20 mM potassium phosphate buffer, pH 7.5, at 37° C.
Kinetic analysis of the peptide library using HPLC—The ability of each peptide in the library to act as a TRH-DE substrate was assessed using HPLC. As an initial screen, 1 mM peptide was incubated with 0.8 μg TRH-DE in a total volume of 1 ml for 18 h at 37° C. Control samples were included in which peptide (1 mM) or Glp (0.2 mM-0.8 mM) were incubated under identical conditions in the absence of TRH-DE. TRH-DE activity was terminated by the addition of TFA (0.15% v/v) and samples were then analysed using HPLC as described previously (24). Products resulting from TRH-DE hydrolysis could be separated on a C-18 reverse-phase column (Hypersil, UK) using a linear gradient of 0-70% acetonitrile in 0.08% (v/v) TFA. The concentration of Glp formed by the action of TRH-DE on the peptide library was measured by UV absorbance at 206 nm with a quantitative detection limit of 0.1 mM for a 40 μl injection volume, employing a signal to noise ratio of 10. Following the incubation of each peptide with TRH-DE, evidence of Glp in the sample was taken to indicate that the peptide was a TRH-DE substrate.
The rates of hydrolysis for each of those peptides identified as substrates were then compared by measuring Gip production using microassays with shorter incubation times. In these assays peptide (1 mM) was incubated at 37° C. in a total volume of 100 μl. 0.8-3.2 μg TRH-DE and incubations times of 5 min to 18 h were used routinely. Measurements were made in triplicate. The rate of TRH-OH hydrolysis was also measured by this method.

TRH-DE [2] = molecular target: T1, TRH-DE; test: continuous coupled fluorometric TRH-DE assay (TRHAMC substrate, DPP-IV coupling enzyme); assay type: biochemical, porcine; settings: for inhibition at 1000 µM: peptide 1 mM, 5 μM TRHAMC substrate
Procedure: as §1, §2
Kinetic analysis of peptides that are not hydrolysed by TRH-DE. A recently-developed continuous coupled fluorometric assay (23) was used to investigate the ability of those library peptides that were not hydrolysed by TRH-DE to inhibit TRHAMC degradation by TRH-DE. In this assay, TRHAMC is the substrate and dipeptidyl peptidase IV (DPP-IV) (EC 3.4.14.5) is the coupling enzyme. The reaction sequence is:
The reaction was monitored continuously by measuring the increase in AMC fluorescence. A linear progress curve with no discernible lag period was observed when the reaction was monitored over a period of 10 minutes. Nevertheless, data sampling was not commenced until 100 s from the start of the reaction to ensure measurements were taken after a steady state had been reached (see Ref. 23).
In a preliminary experiment, the peptides were screened for their ability to inhibit TRH-DE activity. The initial rate of TRHAMC hydrolysis by TRH-DE was measured by incubating 5 μM TRHAMC with 1.23 μg DPP-IV and 0.32 μg TRH-DE, both in the absence and presence of each library peptide (1 mM final concentration) under standard assay conditions (23). In each case the percentage inhibition (i%) was calculated using the equation i%=100(1-vi/vo), where vi and vo are the initial velocities in the presence and absence of peptide, respectively.
Since these peptides were poor inhibitors they were not examined further. The Ki values for the remainder of the peptides were determined by measuring their effects on TRHAMC degradation by TRH-DE using the continuous assay. Data were collected in duplicate at five different substrate concentrations and at least three different concentrations of each peptide.
Reversibility and time dependence of the inhibition produced by Glp-Gln-ProNH2, Glp-Asn-ProNH2 and Glp-Asn-ProAMC were examined by initially preincubating TRH-DE with each peptide at 37° C. for various periods up to 75 min. To investigate time dependence, the enzyme-peptide solution was subsequently added to the reaction mixture containing TRHAMC, DPP-IV, buffer and peptide, and TRH-DE activity was measured using the continuous assay. The final concentration of Glp-Gln-ProNH2, Glp-Asn-ProNH2 and Glp-Asn-ProAMC used was 400, 160 and 1 μM, respectively. […] TRH-DE activity was not affected by pre-incubation at 37° C.
Fluorescence measurements were made using a Perkin Elmer LS 50B Luminescence Spectrometer fitted with a thernostated cell holder. Wavelengths for excitation and emission were set at 370 nm and 440 nm, respectively, with slit widths of 10 nm and 5 nm, respectively.

[3] = from the percent inhibition (n = 3) in the presence of 5 μM substrate
[4] = estimated from <20% inhibition at 1 mM peptide with the competitive inhibition relationship
[5] = calculated from percent inhibition measured in duplicate at 5 μM substrate
[6] = non-linear regression, five TRHAMC concentrations and at least three peptide concentrations, mean±S.D. (n=3)

T1 sequence (A0A287AP33 1-1066): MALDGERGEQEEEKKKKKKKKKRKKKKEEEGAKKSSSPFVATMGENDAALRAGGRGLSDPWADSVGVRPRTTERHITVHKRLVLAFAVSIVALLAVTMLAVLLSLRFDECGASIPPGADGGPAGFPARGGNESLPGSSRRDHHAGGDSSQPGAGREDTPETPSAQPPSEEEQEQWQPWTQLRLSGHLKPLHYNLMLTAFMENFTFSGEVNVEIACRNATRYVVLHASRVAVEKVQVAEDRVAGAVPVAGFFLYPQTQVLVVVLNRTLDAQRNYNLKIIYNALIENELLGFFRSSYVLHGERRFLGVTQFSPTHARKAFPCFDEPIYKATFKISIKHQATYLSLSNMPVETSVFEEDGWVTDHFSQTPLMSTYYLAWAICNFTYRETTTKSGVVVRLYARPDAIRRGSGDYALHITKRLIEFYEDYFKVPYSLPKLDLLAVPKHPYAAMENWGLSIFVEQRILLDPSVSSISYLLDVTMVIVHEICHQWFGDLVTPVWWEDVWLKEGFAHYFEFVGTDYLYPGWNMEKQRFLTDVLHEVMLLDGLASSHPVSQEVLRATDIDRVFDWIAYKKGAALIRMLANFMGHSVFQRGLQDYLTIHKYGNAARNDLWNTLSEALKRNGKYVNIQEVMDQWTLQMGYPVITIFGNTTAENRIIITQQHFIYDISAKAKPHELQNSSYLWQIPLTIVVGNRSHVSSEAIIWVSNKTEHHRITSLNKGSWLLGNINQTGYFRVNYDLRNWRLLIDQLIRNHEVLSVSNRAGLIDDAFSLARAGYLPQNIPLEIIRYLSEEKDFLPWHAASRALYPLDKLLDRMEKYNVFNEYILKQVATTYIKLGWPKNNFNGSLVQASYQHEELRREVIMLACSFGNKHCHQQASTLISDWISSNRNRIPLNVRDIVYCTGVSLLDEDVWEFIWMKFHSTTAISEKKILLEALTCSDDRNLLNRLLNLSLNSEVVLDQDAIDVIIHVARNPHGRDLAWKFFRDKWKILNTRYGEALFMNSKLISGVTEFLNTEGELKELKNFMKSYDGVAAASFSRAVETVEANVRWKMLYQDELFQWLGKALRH

For [pGlu]-Arg-Pro-NH2, the Rate of hydrolysis (TRH-DE [1]) was 0.41 ± 0.02 (4) U mg^−1.

[pGlu]-Lys-Pro-NH2 was tested, and the Rate of hydrolysis (TRH-DE [1]) was 0.46 ± 0.02 (3) U mg^−1.

Work on `Cc1cc(=O)oc2cc(NC(=O)[C@H](Cc3c[nH]c4ccccc34)NC(=O)[C@@H]3CCCN3C(=O)[C@H](CC(N)=O)NC(=O)[C@@H]3CCC(=O)N3)ccc12` [Glp-Asn-Pro-Trp-AMC] ([pGlu]NPW-{AMC}) yielded a Ki (TRH-DE [2]; [3]) of 0.08 µM.

In the case of `NC(=O)[C@@H]1CCCN1C(=O)[C@@H]1CCCN1C(=O)[C@@H]1CCC(=O)N1` [Glp-Pro-ProNH2] ([pGlu]-Pro-Pro-NH2), the Ki (TRH-DE [2]; [4]) is reported as greater than 1000 µM, the inhibition at 1000 µM (TRH-DE [2]) is reported as 3% and the “hydrolysis by TRH-DE (release of Glp)” value (TRH-DE [1]) is reported as “No detectable Glp”.

For `NC(=O)C[C@@H](NC(=O)[C@@H]1CCC(=O)N1)C(=O)N1CCC[C@H]1C(N)=O` [Glp-D-Asn-ProNH2] ([pGlu]-[dN]-Pro-NH2), the Ki (TRH-DE [2]; [4]) was greater than 1000 µM, the inhibition at 1000 µM (TRH-DE [2]) was 2% and the “hydrolysis by TRH-DE (release of Glp)” value (TRH-DE [1]) was “No detectable Glp”.

In the case of Glp-Ileu-ProNH2, the Rate of hydrolysis (TRH-DE [1]) is reported as 0.06 ± 0.00 (4) U mg^−1.

With [pGlu]-Met-Pro-NH2 the Rate of hydrolysis (TRH-DE [1]) was 0.21 ± 0.03 (4) U mg^−1.

[pGlu]-[hPhe]-Pro-NH2 was tested, and the Rate of hydrolysis (TRH-DE [1]) was 0.05 ± 0.00 (3) U mg^−1.

`NC(=O)C[C@H](NC(=O)[C@@H]1CCC(=O)N1)C(=O)N1CCC[C@H]1C(=O)Nc1cccc2c1CCCC2` showed a Ki (TRH-DE [2]; [5]) of 9.31 µM.

In the case of [pGlu]-Cys-Pro-NH2, the “hydrolysis by TRH-DE (release of Glp)” value (TRH-DE [1]) is reported as “no detectable cleavage”.

With `NC(=O)[C@@H]1CCCN1C(=O)[C@@H]1CCCCN1C(=O)[C@@H]1CCC(=O)N1` [Glp-homoPro-ProNH2] ([pGlu]-[Pip]-Pro-NH2) the Ki (TRH-DE [2]; [6]) was 500 ± 133 µM, the inhibition at 1000 µM (TRH-DE [2]) was 40% and the “hydrolysis by TRH-DE (release of Glp)” value (TRH-DE [1]) was “No detectable Glp”.

Work on `NC(=O)C[C@H](NC(=O)[C@@H]1CCC(=O)N1)C(=O)N1CCC[C@H]1C(=O)N[C@@H](Cc1c[nH]c2ccccc12)C(=O)N[C@@H](Cc1ccc(O)cc1)C(N)=O` [Glp-Asn-Pro-Trp-Tyr-NH2] ([pGlu]NPWY-NH2) yielded a Ki (TRH-DE [2]; [3]) of 5.91 µM.

With `NC(=O)C[C@H](NC(=O)[C@@H]1CCC(=O)N1)C(=O)N1CCC[C@H]1C(=O)NC1CCCc2ccccc21` (single isomer, unassigned) [1,2,3,4-tetrahydro-1-naphthylamide isomer 2] the Ki (TRH-DE [2]; [5]) was 22.4 µM.

For `NC(=O)CC[C@H](NC(=O)[C@@H]1CCC(=O)N1)C(=O)N1CCC[C@H]1C(N)=O` [Glp-Gln-ProNH2] ([pGlu]-Gln-Pro-NH2), the Ki (TRH-DE [2]; [6]) was 69 ± 4.4 µM, the inhibition at 1000 µM (TRH-DE [2]) was 83% and the “reversibility and time dependence of inhibition” value (TRH-DE [2]; preincubation with TRH-DE up to 75 min at 37° C., Glp-Gln-ProNH2 400, Glp-Asn-ProNH2 160, Glp-Asn-ProAMC 1 μM) was “fully reversible and not time-dependent”. For the same molecule, the “hydrolysis by TRH-DE (release of Glp)” value (TRH-DE [1]) was “not hydrolyzed at all; also recorded: No detectable Glp”.

`NC(=O)[C@@H]1CCCN1C(=O)CNC(=O)[C@@H]1CCC(=O)N1` [Glp-Gly-ProNH2] ([pGlu]-Gly-Pro-NH2) was tested, and the Ki (TRH-DE [2]; [4]) was greater than 1000 µM, the inhibition at 1000 µM (TRH-DE [2]) was 8% and the “hydrolysis by TRH-DE (release of Glp)” value (TRH-DE [1]) was “No detectable Glp”.

[pGlu]-Leu-Pro-NH2 was tested, and the Rate of hydrolysis (TRH-DE [1]) was 0.14 ± 0.01 (5) U mg^−1.

`NC(=O)[C@@H]1CCCN1C(=O)[C@H](CC(=O)O)NC(=O)[C@@H]1CCC(=O)N1` [Glp-Asp-ProNH2] ([pGlu]-Asp-Pro-NH2) was tested, and the Ki (TRH-DE [2]; [4]) was greater than 1000 µM, the inhibition at 1000 µM (TRH-DE [2]) was 1% and the “hydrolysis by TRH-DE (release of Glp)” value (TRH-DE [1]) was “No detectable Glp”.
